Data as given in PubChem BioAssay (NCI).
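How tested: cells in 96-well plates exposed to compound for 48 hours at five concentrations. At the GI50, growth is halved. The concentration for full growth arrest is given as TGI.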

Columns and labels:
Assay in all cases: NCI-60 cell line screen, 48 h
A549 NSCLC = test system: A549 NSCLC
ACHN renal = test system: ACHN renal
HOP-92 NSCLC = test system: HOP-92 NSCLC
HT29 colon = test system: HT29 colon
LOX IMVI melanoma = test system: LOX IMVI melanoma
MCF7 breast = test system: MCF7 breast
OVCAR-3 ovarian = test system: OVCAR-3 ovarian
OVCAR-5 ovarian = test system: OVCAR-5 ovarian
PC-3 prostate = test system: PC-3 prostate
SNB-19 CNS = test system: SNB-19 CNS

SMILES	TGI (A549 NSCLC) [µM]	TGI (ACHN renal) [µM]	TGI (HOP-92 NSCLC) [µM]	TGI (HT29 colon) [µM]	TGI (LOX IMVI melanoma) [µM]	TGI (MCF7 breast) [µM]	TGI (OVCAR-3 ovarian) [µM]	TGI (OVCAR-5 ovarian) [µM]	TGI (PC-3 prostate) [µM]	TGI (SNB-19 CNS) [µM]	GI50 (A549 NSCLC) [µM]	GI50 (ACHN renal) [µM]	GI50 (HOP-92 NSCLC) [µM]	GI50 (HT29 colon) [µM]	GI50 (LOX IMVI melanoma) [µM]	GI50 (MCF7 breast) [µM]	GI50 (OVCAR-3 ovarian) [µM]	GI50 (OVCAR-5 ovarian) [µM]	GI50 (PC-3 prostate) [µM]	GI50 (SNB-19 CNS) [µM]
O=C(CNc1ccccc1Cl)Nn1c(-c2ccccc2)nc2ccccc2c1=O	> 100	> 100	29.4	> 10	29.5	31.4	48.3	> 10	99	> 10										
COc1cc2c(cc1-c1c(C)noc1C)cc(C)c(=O)n2Cc1ccccn1	> 100	> 100	25.3	> 100	10.8	> 100	11.2	> 100	> 100	> 100	1.76	1.45	0.473	0.469	0.884	0.333	1.8	2.78	3.47	1.86
